We go through 1 compound from paper doi:10.1101/2023.09.11.557219v1 (biorxiv, 2023).

This test has as its target SARS-CoV-2 M^pro (main protease, 3CL^pro, NSP5) (Severe acute respiratory syndrome coronavirus 2, UniProt P0DTD1). Nature of the test: fluorogenic substrate cleavage, Morrison fit. Type of test: biochemical. To be noted: HEPES 25 mM pH 7.0; fluorogenic substrate SAE0180.

A word on the Ki: it is the dissociation constant of the complex between target and ligand, obtained from inhibition or displacement. Low readings indicate a stronger hold on the target, high ones a looser hold on the target. Compound `O=C(NCCN1CCCC1)N1c2ccccc2Sc2ccccc21` [compound 3, 4080] registered a Ki of 80 µM.
